This note sets out measurements from patent US9371265B2, “Compositions and methods related to inhibitors of JAK kinase” (EP PHARMA, INC., priority 2012, dated 2016).

The test system of one assay is STAT3. The experiment in a line: Phospho-STAT3 in SU-DHL-1 cells (Luminex multiplex). The assay is classed as cell-based, human. As to conditions: 0-40 μM, 12 hours. The source says: FIGS. 6A-6B. EP009 treatment disrupts constitutive JAK3/STAT3 pathway activation and down-regulates CD30 cell surface expression in human ALCL cells. (A) Kit225 (lane a), SUP-M2 (lane b), Karpas299 (lane c), DEL (lane d) and SU-DHL-1 (lane e) total cell lysates were separated by 7.5% SDS-PAGE (upper panel) or were immunoprecipitated (IP) with JAK3 antibodies (lower panel) and separated on 7.5% SDS-PAGE, and then subjected to Western blot (WB) analysis with the indicated antibodies. (B) SU-DHL-1 cells were treated with vehicle (PBS; lane a) or increasing amounts of EP009 (0-40 μM; lanes b-e) for 12 hours. Cells were then lysed, clarified, and immunoprecipitated (IP) with anti-JAK3 (α-JAK3), and subjected to Western blot (WB) analysis with anti-phosphotyrosine (α-pY). Blots were stripped and reprobed with α-JAK3 to verify equivalent protein loading. (C) SU-DHL-1 cells were treated with vehicle (PBS) or increasing amounts of EP009 (0-40 μM) for 12 hours. […] Values represent pSTAT mean fluorescence intensity (MFI) normalized to corresponding GAPDH MFI, while error bars represent the standard deviation (n=2). Statistical significance was determined using Student's t-test. […] Cells were then analyzed by flow cytometry for CD30 expression. […]

The test system of another assay is p38 MAP kinase. The experiment in a line: Phospho-p38 in SU-DHL-1 cells (Luminex multiplex). The assay is classed as cell-based, human. As to conditions: 24 hours. The method, then: FIGS. 8A-8F. Effect of EP009 on ALCL cells is mediated through selective activation of ERK1/2 and JNK1/2 stress signaling pathways, and inhibition of p70 S6 kinase growth signaling pathways. SU-DHL-1 cells were treated with vehicle (PBS) or increasing amounts of EP009 (0-50 μM) for 24 hours. Cells were then lysed, clarified, and subjected to Luminex multiplex analysis to detect phosphorylated (A) ERK1/2, (B) JNK1/2, (C) p70 S6 kinase, (D) IκBα, (E) CREB, and (F) p38. Values represent mean fluorescence intensity (MFI) normalized to corresponding GAPDH MFI, while error bars represent the standard deviation (n=2). Representative data from two independent experiments are shown. Statistical significance was determined using Student's t-test. (*, p<0.05).
The MILLIPLEX MAP 8-plex Multi-Pathway Signaling Phosphoprotein kit (Millipore) was used to detect phosphorylated ERK1/2 (Thr185/Tyr187), STAT3 (Ser727), JNK1/2 (Thr183/Tyr185), p70 S6 kinase (Thr412), IκBα (Ser32), STAT5A/B (Tyr694/699), CREB (Ser133), and p38 (Thr180/Tyr182). The MILLIPLEX MAP 5-plex STAT Phosphoprotein kit (Millipore) was used to detect phosphorylated STAT1 (Tyr701), STAT2 (Tyr690), STAT3 (Tyr705), STAT5A/B (Tyr694/699), and STAT6 (Tyr641). The MILLIPLEX MAP Human Apoptosis 3-plex kit (Millipore) was used to detect cleaved PARP, cleaved Caspase 3, and total GAPDH for protein normalization.

The target of the next assay is AURKA (Homo sapiens, UniProt O14965). The experiment in a line: Kinase panel: AURKA. The assay is classed as biochemical. The note with it: 10 μM EP009. On the procedure:
(§1) Achieving JAK3 selectivity remains a significant challenge in the development of new small molecules for the treatment of cancer and immune-derived diseases. As such, the inventors employed cell-based screening assays of small-molecule libraries based upon the chemical scaffold of the established JAK3 inhibitor NC1153 (Stepkowski et al., J Immunol. (2005), 175(7):4236-4246) EP009 (FIG. 2A) was selected as a lead compound due to improved intrinsic stability (>95% purity in various solvents at 37° C. for 24 hours; FIG. 3) and high-degree of JAK3 selectivity. To test JAK3 versus JAK2 specificity of EP009, the IL-2/JAK3-dependent Kit225, and IL-3/JAK2-dependent BaF/3 cell lines were used. Kit225 and BaF/3 cells growing in the presence of IL-2 or IL-3, respectively, were treated with ascending concentrations of EP009 for 12 hours and cellular JAK3 and JAK2 tyrosine phosphorylation levels detected by Western blot analysis (FIGS. 2B and 2C). Following densitometric analysis, EP009 was determined to dose-dependently reduce IL-2-mediated JAK3 tyrosine phosphorylation with a cellular 50% inhibitory concentration (IC50) between 10 and 20 μM (FIG. 2B). […] To globally evaluate specificity, the inhibitory activity of EP009 was measured against a panel of protein kinases distributed throughout the kinome using the scanEDGE profiling service (KINOMEscan). […]

The target in another assay is JNK1 (Homo sapiens, UniProt P45983). The experiment in a line: Kinase panel: JNK1. It counts as biochemical. As to conditions: 10 μM EP009. The method, then: as §1
Chain of JNK1 (P45983 whole entry): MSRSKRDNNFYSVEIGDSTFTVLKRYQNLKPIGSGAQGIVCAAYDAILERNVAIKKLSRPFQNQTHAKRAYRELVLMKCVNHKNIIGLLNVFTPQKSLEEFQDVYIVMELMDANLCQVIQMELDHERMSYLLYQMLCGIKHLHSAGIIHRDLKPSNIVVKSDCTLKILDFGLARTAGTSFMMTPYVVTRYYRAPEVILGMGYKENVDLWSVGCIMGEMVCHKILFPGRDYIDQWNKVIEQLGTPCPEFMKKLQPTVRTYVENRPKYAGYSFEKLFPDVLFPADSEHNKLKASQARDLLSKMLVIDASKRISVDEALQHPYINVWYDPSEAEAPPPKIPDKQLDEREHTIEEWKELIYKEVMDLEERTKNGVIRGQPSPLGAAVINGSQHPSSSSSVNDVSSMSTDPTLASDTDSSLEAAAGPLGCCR

Chain of AURKA (O14965 whole entry): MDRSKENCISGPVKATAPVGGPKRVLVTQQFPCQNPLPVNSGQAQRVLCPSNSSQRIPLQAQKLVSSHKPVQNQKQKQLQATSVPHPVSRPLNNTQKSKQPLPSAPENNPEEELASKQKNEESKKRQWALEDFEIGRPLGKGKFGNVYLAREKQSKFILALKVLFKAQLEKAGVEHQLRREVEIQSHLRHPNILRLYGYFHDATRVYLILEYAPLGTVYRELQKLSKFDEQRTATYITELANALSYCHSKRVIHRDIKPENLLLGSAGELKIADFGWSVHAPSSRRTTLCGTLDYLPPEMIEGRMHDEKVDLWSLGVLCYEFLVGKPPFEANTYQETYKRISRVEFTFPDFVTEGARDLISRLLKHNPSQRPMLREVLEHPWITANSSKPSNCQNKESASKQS

`C=C1CCCCCCCCCC(CO)C1=O` (centres unmarked) [EP009, 2-(Hydroxymethyl)-12-methylenecyclododecanone]: the “effect on phospho-STAT3 levels” value in the assay on STAT3 is reported as “dose-dependent inhibition”. The “p38 MAP kinase phosphorylation status” value with p38 MAP kinase is “No statistically significant change”. For the same compound, the “inhibition of Aurora kinase A (AURKA)” value against AURKA stood at 45 % inhibition. Further, the “Kinase Activity (% of Control)” value at AURKA (AURKA) is reported as 55 % of Control; at JNK1, 99 % of Control.
